Where a name gives a salt, the structure may show the parent alone.
test system: Acinetobacter baumannii ATCC17961; experiment: Antimicrobial susceptibility testing: 90% growth inhibitory concentration (IC90) determination, Iso-Sensitest broth; format: cell-based; details: 90% growth inhibitory concentration, Acinetobacter baumannii ATCC17961, Iso-Sensitest broth; formate; read-out: ATCC 17961 IC90
Experimental: The in vitro antimicrobial activity of the compounds was determined according to the following procedure:
The assay used a 10-points Iso-Sensitest broth medium to measure quantitatively the in vitro activity of the compounds against Acinetobacter baumannii ATCC17978 or ATCC17961.
Stock compounds in DMSO were serially twofold diluted (e.g. range from 10 to 0.02 μM final concentration) in 384 wells microtiter plates and inoculated with 49 μl the bacterial suspension in Iso-Sensitest medium to have a final cell concentration of ˜5×10^(5) CFU/ml in a final volume/well of 50 ul/well. Microtiter plates were incubated at 35±2° C.
Bacterial cell growth was determined with the measurement of optical density at k=600 nm each 20 minutes over a time course of 16 h. Growth inhibition was calculated during the logarithmic growth of the bacterial cells with determination of the concentration inhibiting 50% (IC50) and 90% (IC90) of the growth.
Table 1 provides the 90% growth inhibitory concentrations (IC90) in micromoles per liter of the compounds of present invention obtained against the strain Acinetobacter baumannii ATCC17978 or ATCC17961.

IC90 | Structure (SMILES)
80 nM | COc1ccc(-c2cnc(C(=O)Nc3ccc(C(=O)N4CCN(C(=O)N[C@H]5CNC[C@@H]5O)CC4)c(Cl)c3)n2C)c(F)c1F [Example 284, 4-[2-chloro-4-[[5-(2,3-difluoro-4-methoxy-phenyl)-1-methyl-imidazole-2-carbonyl]amino]benzoyl]-N-[(3S,4S)-4-hydroxypyrrolidin-3-yl]piperazine-1-carboxamide formate]

same assay, conditions: Acinetobacter baumannii, ATCC17961, 90% growth inhibitory concentration, Acinetobacter baumannii ATCC17961, Iso-Sensitest broth; read-out: ATCC 17961 IC90

Structure (SMILES) | IC90
Cc1cc(NC(=O)c2ncc(-c3ccc(OCC#N)c(F)c3F)n2C)ccc1C(=O)N1CCC(C(=O)N2CCO[C@@H](CN)C2)CC1 [Example 87, (S)-N-(4-(4-(2-(aminomethyl)morpholine-4-carbonyl)piperidine-1-carbonyl)-3-methylphenyl)-5-(4-(cyanomethoxy)-2,3-difluorophenyl)-1-methyl-1H-imidazole-2-carboxamide 2,2,2-trifluoroacetate] | 120 nM
COc1ccc(-c2cnc(C(=O)Nc3ccc(C(=O)N4CCC(C(=O)N[C@H]5CCNC5)CC4)c(Cl)c3)n2C)c(F)c1F [Example 58, 1-[2-chloro-4-[[5-(2,3-difluoro-4-methoxy-phenyl)-1-methyl-imidazole-2-carbonyl]amino]benzoyl]-N-[(3S)-pyrrolidin-3-yl]piperidine-4-carboxamide formate] | 50 nM
COc1ccc(-c2cnc(C(=O)Nc3ccc(C(=O)N4CCC(C(=O)N5CC(CN)C5)CC4)c(Cl)c3)n2C)c(F)c1F [Example 34, N-[4-[4-[3-(aminomethyl)azetidine-1-carbonyl]piperidine-1-carbonyl]-3-chloro-phenyl]-5-(2,3-difluoro-4-methoxy-phenyl)-1-methyl-imidazole-2-carboxamidetrifluoroacetate] | 70 nM
Cn1c(-c2ccc(OCF)c(F)c2F)cnc1C(=O)Nc1ccc(C(=O)N2CCN(C(=O)C3CCN(CC(N)=O)CC3)CC2)c(Cl)c1 [Example 24, N-(4-(4-(1-(2-amino-2-oxoethyl)piperidine-4-carbonyl)piperazine-1-carbonyl)-3-chlorophenyl)-5-(2,3-difluoro-4-(fluoromethoxy)phenyl)-1-methyl-1H-imidazole-2-carboxamide] | 70 nM
Cn1c(-c2ccc(OC(F)F)c(F)c2F)cnc1C(=O)Nc1ccc(C(=O)N2CCC(C(=O)NC[C@H]3CCNC3)CC2)c(Cl)c1 [Example 48, 1-[2-chloro-4-[[5-[4-(difluoromethoxy)-2,3-difluoro-phenyl]-1-methyl-imidazole-2-carbonyl]amino]benzoyl]-N-[[(3S)-pyrrolidin-3-yl]methyl]piperidine-4-carboxamide trifluoroacetate] | 40 nM
COc1ccc(-c2cnc(C(=O)Nc3ccc(C(=O)N4CCC(C(=O)NCCCC(=O)O)CC4)c(Cl)c3)n2C)c(F)c1F [Example 68, 4-[[1-[2-chloro-4-[[5-(2,3-difluoro-4-methoxy-phenyl)-1-methyl-imidazole-2-carbonyl]amino]benzoyl]piperidine-4-carbonyl]amino]butanoic acid] | 2100 nM
COc1ccc(-c2cnc(C(=O)Nc3ccc(C(=O)N4CCC(C(=O)NCC5(O)CNC5)CC4)c(Cl)c3)n2C)c(F)c1F [Example 57, 1-[2-chloro-4-[[5-(2,3-difluoro-4-methoxy-phenyl)-1-methyl-imidazole-2-carbonyl]amino]benzoyl]-N-[(3-hydroxyazetidin-3-yl)methyl]piperidine-4-carboxamide formate] | 60 nM
CCc1cc(NC(=O)c2ncc(-c3ccc(OC)c(F)c3F)n2C)ccc1C(=O)N1CCC(C(=O)N2CCN(CCCN(C)C)CC2)CC1 [Example 97, 5-(2,3-difluoro-4-methoxy-phenyl)-N-[4-[4-[4-[3-(dimethylamino)propyl]piperazine-1-carbonyl]piperidine-1-carbonyl]-3-ethyl-phenyl]-1-methyl-imidazole-2-carboxamide] | 260 nM
COc1ccc(-c2cnc(C(=O)Nc3ccc(C(=O)N4CCC(NC(=O)[C@@H]5C[C@@H](O)CN5)CC4)c(Cl)c3)n2C)c(F)c1F [Example 102, N-[3-chloro-4-[4-[[(2S,4R)-4-hydroxypyrrolidine-2-carbonyl]amino]piperidine-1-carbonyl]phenyl]-5-(2,3-difluoro-4-methoxy-phenyl)-1-methyl-imidazole-2-carboxamide] | 90 nM

The next lines start with the values.

IC90 | Structure (SMILES)
90 nM | COc1ccc(-c2cnc(C(=O)Nc3ccc(C(=O)N4CCC(NC(=O)CN(C)C)CC4)c(Cl)c3)n2C)c(F)c1F [Example 195, N-[3-chloro-4-[4-[[2-(dimethylamino)acetyl]amino]piperidine-1-carbonyl]phenyl]-5-(2,3-difluoro-4-methoxy-phenyl)-1-methyl-imidazole-2-carboxamide]
100 nM | COc1ccc(-c2cnc(C(=O)Nc3ccc(C(=O)N4CCN(C(=O)CCOCCN)CC4)c(Cl)c3)n2C)c(F)c1F [Example 246, N-[4-[4-[3-(2-aminoethoxy)propanoyl]piperazine-1-carbonyl]-3-chloro-phenyl]-5-(2,3-difluoro-4-methoxy-phenyl)-1-methyl-imidazole-2-carboxamide formate]
40 nM | COc1ccc(-c2cnc(C(=O)Nc3ccc(C(=O)N4CCN(C(=O)[C@H]5CC[C@@H](N)C5)CC4)c(Cl)c3)n2C)c(F)c1F [Example 108, N-[4-[4-[(1S,3R)-3-aminocyclopentane-carbonyl]piperazine-1-carbonyl]-3-chloro-phenyl]-5-(2,3-difluoro-4-methoxy-phenyl)-1-methyl-imidazole-2-carboxamide; formate]
50 nM | Cn1c(-c2ccc(OCF)c(F)c2F)cnc1C(=O)Nc1ccc(C(=O)N2CCN(C(=O)[C@@H]3C[C@@H](O)CN3)CC2)c(Cl)c1 [Example 221, N-(3-chloro-4-(4-((2S,4R)-4-hydroxypyrrolidine-2-carbonyl)piperazine-1-carbonyl)phenyl)-5-(2,3-difluoro-4-(fluoromethoxy)phenyl)-1-methyl-1H-imidazole-2-carboxamide formate]
8700 nM | Cn1c(-c2ccc(CC#N)cc2F)cnc1C(=O)Nc1ccc(C(=O)N2CCN(C(=O)C3CCNCC3)CC2)c(Cl)c1 [Example 256, N-[3-chloro-4-[4-(piperidine-4-carbonyl)piperazine-1-carbonyl]phenyl]-5-[4-(cyanomethyl)-2-fluoro-phenyl]-1-methyl-imidazole-2-carboxamide formate]
30 nM | COc1ccc(-c2cnc(C(=O)Nc3ccc(C(=O)N4CCN(C(=O)[C@@H]5CCNC5)CC4)c(Cl)c3)n2C)c(F)c1F [Example 138, N-[3-chloro-4-[4-[(3R)-pyrrolidine-3-carbonyl]piperazine-1-carbonyl]phenyl]-5-(2,3-difluoro-4-methoxy-phenyl)-1-methyl-imidazole-2-carboxamide formate]
460 nM | COc1ccc(-c2cnc(C(=O)Nc3ccc(C(=O)N4CCN(C(=O)C5CCNCC5)CC4)c(Cl)c3)n2C)cc1C#N [Example 192, N-[3-chloro-4-[4-(piperidine-4-carbonyl)piperazine-1-carbonyl]phenyl]-5-(3-cyano-4-methoxy-phenyl)-1-methyl-imidazole-2-carboxamide formate]
50 nM | Cc1cc(NC(=O)c2ncc(-c3ccc(OCF)c(Cl)c3F)n2C)ccc1C(=O)N1CCN(C(=O)[C@@H]2C[C@@H](O)CN2)CC1 [Example 248, 5-[3-chloro-2-fluoro-4-(fluoromethoxy)phenyl]-N-[4-[4-[(2S,4R)-4-hydroxypyrrolidine-2-carbonyl]piperazine-1-carbonyl]-3-methyl-phenyl]-1-methyl-imidazole-2-carboxamide]
70 nM | Cn1c(-c2ccc(OC(F)F)cc2F)cnc1C(=O)Nc1ccc(C(=O)N2CCN(C(=O)C[C@@H]3CCCN3)CC2)c(Cl)c1 [Example 159, N-[3-chloro-4-[4-[2-[(2S)-pyrrolidin-2-yl]acetyl]piperazine-1-carbonyl]phenyl]-5-[4-(difluoromethoxy)-2-fluoro-phenyl]-1-methyl-imidazole-2-carboxamide formate]
30 nM | Cn1c(-c2ccc(OC(F)F)c(F)c2F)cnc1C(=O)Nc1ccc(C(=O)N2CCN(C(=O)C[C@@H]3CCCN3)CC2)c(Cl)c1 [Example 224, (S)-N-(3-chloro-4-(4-(2-(pyrrolidin-2-yl)acetyl)piperazine-1-carbonyl)phenyl)-5-(4-(difluoromethoxy)-2,3-difluorophenyl)-1-methyl-1H-imidazole-2-carboxamide formate]
40 nM | CN(C)CC(=O)N1CCN(C(=O)c2ccc(NC(=O)c3ncc(-c4ccc(OCF)c(F)c4F)n3C)cc2Cl)CC1 [Example 220, N-(3-chloro-4-(4-(dimethylglycyl)piperazine-1-carbonyl)phenyl)-5-(2,3-difluoro-4-(fluoromethoxy)phenyl)-1-methyl-1H-imidazole-2-carboxamide formate]

same assay, conditions: Acinetobacter baumannii, ATCC17961, read-out: ATCC 17961 IC90

Structure (SMILES) | IC90
Cn1c(-c2ccc(OC(F)F)c(F)c2F)cnc1C(=O)Nc1ccc(C(=O)N2CCC(C(=O)NCCN)CC2)c(Cl)c1 [Example 92, N-(2-aminoethyl)-1-(2-chloro-4-(5-(4-(difluoromethoxy)-2,3-difluorophenyl)-1-methyl-1H-imidazole-2-carboxamido)benzoyl) piperidine-4-carboxamide formate] | 60 nM
